From patent US20100221274A1, “METHOD OF ADMINISTERING A THYMOSIN ALPHA 1 PEPTIDE” (SCICLONE PHARMACEUTICALS, INC., priority 2001, published 2010)
Peptide text beside a SMILES is read from it.

Tests used:
NK activity = NK activity (LDH released from YAC-1 cells after 4 h exposure to PBMC) in 5-FU immune-suppressed rats, Example 1; format: in vivo; conditions: for NK activity: 5 days after TA1 treatment
Protocol: (§1) In the following examples, which are not intended to be limiting, a continuous infusion of TA1 (N-acetyl-[…]OH) (SEQ ID NO:1) was evaluated in a cancer therapy model with the use of surgically implanted osmotic minipumps, which deliver fluids at a constant flow rate for 5 days. Rats were given 5-fluorouracil (5-FU) to cause immune suppression, and then treated with injected or infused TA1 8 days later (the nadir of white cell count after 5-FU). Treatment groups, 8 rats each, were: control (minipumps with saline); low dose TA1 (0.2 mg/Kg sc injection; empty minipumps); high dose TA1 (3.5 mg/Kg sc injection; empty minipumps); and high dose infused TA1 (3.5 mg/Kg infused by minipumps). Immune parameters were determined at baseline and 8 days after 5-FU treatment (day 1 of TA1 treatment), and also at 5, 12, 20, and 27 days after TA1 treatment.
(§2) 10 week old rats, weighing 250-300 g, received 100 mg/kg 5-fluorouracil (5-FU) for immune suppression.
(§3) 8 days after 5-FU treatment, rats were randomly assigned to one of the following groups (n=8): • Control (saline in minipump) • Low dose TA1, injected s.c. at 0.2 mg/Kg (with empty minipumps) • High dose TA1, injected s.c. at 3.5 mg/Kg (with empty minipumps) • Continuous infusion TA1, provided by minipump at 3.5 mg/Kg/5 days
(§4) Immune parameters were determined at baseline and 8 days after 5-FU treatment (day 1 of TA1 treatment), and also at 5, 12, 20, and 27 days after TA1 treatment.
(§5) The evaluations included NK activity (LDH released from YAC-1 cells after 4 h exposure to PBMC), total leukocyte number (judged by physical cytofluorimetric parameters, after verifying the specificity by monoclonal antibody), total lymphocyte number (CD3+ by flow cytometry), and activated lymphocytes (CD25+CD3+ by flow cytometry).

total leukocyte number = assay: total white blood cell count in 5-FU immune-suppressed rats, Example 1; format: in vivo
Protocol: as §1, §2, §3, §4, §5

[1] = test system: activated lymphocytes (CD3+CD25+); assay: activated lymphocytes (CD25+CD3+ by flow cytometry) in 5-FU immune-suppressed rats, Example 1; format: in vivo
Protocol: as §1, §2, §3, §4, §5

granulocytes = granulocytes (flow cytometry, HIS-48) in 5-FU immune-suppressed rats, Example 2; format: in vivo
Protocol: (§6) 10 week old rats, weighing 250-300 g, received […] 5-FU for immune suppression.
(§7) 8 days after 5-FU treatment, rats were randomly assigned to one of the following groups (n=15): • Control (saline in minipump) • High dose TA1, injected s.c. at 3.5 mg/Kg (with empty minipumps) • Continuous infusion TA1, provided by minipump at 3.5 mg/Kg/5 days
(§8) Immune parameters were determined at baseline and 8 days after 5-FU treatment (day 1 of TA1 treatment), and also at 5 and 14 days after TA1 treatment.
(§9) The evaluations included total leukocyte number (judged by physical cytofluorimetric parameters, after verifying the specificity by monoclonal antibody), granulocytes (flow cytometry using FITC anti rat granulocyte HIS-48), total lymphocyte number (CD3+ by flow cytometry), T helper lymphocytes (CD4+ by flow cytometry), activated lymphocytes (CD25+CD3+ by flow cytometry), and cytokine expression in plasma (IL-2 and IFN-γ by ELISA).

total lymphocytes (CD3+) = assay: total lymphocyte number (CD3+ by flow cytometry) in 5-FU immune-suppressed rats, Example 2; format: in vivo
Protocol: as §6, §7, §8, §9

[2] = test system: activated lymphocytes (CD25+CD3+); assay: activated lymphocytes (CD25+CD3+ by flow cytometry) in 5-FU immune-suppressed rats, Example 2; format: in vivo
Protocol: as §6, §7, §8, §9

[3] = test system: T helper lymphocytes (CD3+CD4+); assay: T helper lymphocytes (CD4+ by flow cytometry) in 5-FU immune-suppressed rats, Example 2; format: in vivo
Protocol: as §6, §7, §8, §9

IL-2 = assay: cytokine expression in plasma by ELISA: IL-2, Example 2; format: in vivo, rats; conditions: for plasma level of IL-2: 14 days after TA1
Protocol: as §6, §7, §8, §9

IFN-γ = assay: cytokine expression in plasma by ELISA: IFN-γ, Example 2; format: in vivo, rats
Protocol: as §6, §7, §8, §9

[4] = observation of adverse events in treated rats; format: in vivo
Protocol: as §7

[5] = continuous infusion by minipump 3.5 mg/Kg/5 days
[6] = high dose injected s.c. 3.5 mg/Kg
[7] = low dose injected s.c. 0.2 mg/Kg
[8] = continuous infusion 3.5 mg/Kg/5 days
[9] = one animal, high dose injection followed by infusion

CC[C@H](C)[C@H](NC(=O)[C@H](CCC(=O)O)NC(=O)[C@H](CO)NC(=O)[C@H](CO)NC(=O)[C@@H](NC(=O)[C@H](CC(=O)O)NC(=O)[C@@H](NC(=O)[C@H](C)NC(=O)[C@H](C)NC(=O)[C@H](CC(=O)O)NC(=O)[C@H](CO)NC(C)=O)C(C)C)[C@@H](C)O)C(=O)N[C@H](C(=O)N[C@H](C(=O)N[C@@H](CCCCN)C(=O)N[C@@H](CC(=O)O)C(=O)N[C@@H](CC(C)C)C(=O)N[C@@H](CCCCN)C(=O)N[C@@H](CCC(=O)O)C(=O)N[C@@H](CCCCN)C(=O)N[C@@H](CCCCN)C(=O)N[C@@H](CCC(=O)O)C(=O)N[C@H](C(=O)N[C@H](C(=O)N[C@@H](CCC(=O)O)C(=O)N[C@@H](CCC(=O)O)C(=O)N[C@@H](C)C(=O)N[C@@H](CCC(=O)O)C(=O)N[C@@H](CC(N)=O)C(=O)O)C(C)C)C(C)C)[C@@H](C)O)[C@@H](C)O [TA1] (Ac-SDAAVDTSSEITTKDLKEKKEVVEEAEN-OH)
recovery of NK activity (NK activity; [5]): complete recovery of NK activity to baseline levels | NK activity (NK activity; continuous infusion by minipump 3.5 mg/Kg/5 days, baseline 42±5%): 32±4% | time to significant recovery of NK activity (NK activity; [6]): 5 days | NK activity (NK activity; [6]): 16±2% | time to significant recovery of NK activity (NK activity; [7]): 12 days | NK activity (NK activity; [7]): 12±3% | recovery of total white blood cell count (total leukocyte number; [5]): statistically significant and complete recovery to baseline levels after only 5 days | recovery of total white blood cell count (total leukocyte number; low or high dose TA1 by s.c. injection (0.2 or 3.5 mg/Kg)): trended towards a sooner increase in recovery compared to untreated animals | activated lymphocytes (CD3+CD25+) ([1]; continuous infusion 3.5 mg/Kg/5 days, 12 days after TA1 treatment): 422±105 cells/mm^3 | activated lymphocytes (CD3+CD25+) ([1]; continuous infusion 3.5 mg/Kg/5 days, 20 days after TA1 treatment): 446±73 cells/mm^3 | activated lymphocytes (CD3+CD25+) ([1]; high dose injected 3.5 mg/Kg, 12 days after TA1 treatment): 297±136 cells/mm^3 | activated lymphocytes (CD3+CD25+) ([1]; high dose injected 3.5 mg/Kg, 20 days after TA1 treatment): 321±75 cells/mm^3 | number of granulocytes (granulocytes; TA1 by s.c. injection 3.5 mg/Kg, 5 days): 9,924±3,218 cells/mm^3 | number of granulocytes (granulocytes; continuous infusion 3.5 mg/Kg/5 days, 5 days): 14,652±2,463 cells/mm^3 | number of granulocytes relative to other groups (granulocytes; continuous infusion 3.5 mg/Kg/5 days, after 14 days): still the highest | number of granulocytes (granulocytes; one animal, both injection (3.5 mg/Kg) and continuous infusion (another 3.5 mg/Kg), after 5 days): 19,376 cells/mm^3 | time to recovery of total lymphocytes (CD3+) to baseline levels (total lymphocytes (CD3+); [8]): 5 days | levels of lymphocytes (total lymphocytes (CD3+); continuous infusion 3.5 mg/Kg/5 days, mean of other animals): 9,644±961 cells/mm^3 | time to recovery of total lymphocytes (CD3+) to baseline levels (total lymphocytes (CD3+); injected TA1 3.5 mg/Kg s.c.): 14 days | levels of lymphocytes (total lymphocytes (CD3+); one animal, both injection and continuous infusion (3.5 mg/Kg each)): 9,765 cells/mm^3 | activated lymphocytes [2, 8]: 428±89 cells/mm^3 | percentage of lymphocytes which were activated [2, 8]: 4 % of lymphocytes | activated lymphocytes [2, 9]: 976 cells/mm^3 | percentage of lymphocytes which were activated [2, 9]: 10 % of lymphocytes | recovery of T helper cell levels ([3]; TA1 by either delivery method (injection or continuous infusion, 3.5 mg/Kg)): sufficient to return the levels of T helper cells to baseline | plasma level of IL-2 (IL-2; [8]): 42 ± 7 pg/mL | plasma level of IL-2 (IL-2; injected TA1 3.5 mg/Kg s.c.): 21 ± 16 pg/mL | plasma level of IL-2 relative to other animals (IL-2; one animal, both injection and continuous infusion): even greater levels of both of the Th1 cytokines measured | plasma level of IFN-γ (IFN-γ; TA1 by injection 3.5 mg/Kg s.c., 14 days after treatment): 10 ± 1 pg/mL | plasma level of IFN-γ (IFN-γ; continuous infusion 3.5 mg/Kg/5 days, 14 days after treatment): 14 ± 5 pg/mL | plasma level of IFN-γ (IFN-γ; one animal, both injection and continuous infusion, after 14 days): 45 pg/mL | plasma level of IFN-γ relative to other groups (IFN-γ; s.c. injected TA1 3.5 mg/Kg, 5 days after treatment): higher plasma levels of IFN-γ | adverse events ([4]; doses of TA1 15 times higher than usual (one animal 30 times higher than usual)): No adverse events were observed | adverse events / condition of the animal ([4]; one animal, both injection (3.5 mg/Kg) and continuous infusion (another 3.5 mg/Kg)): healthy and vigorous, with no obvious adverse events

O=c1[nH]cc(F)c(=O)[nH]1 [5-FU, 5-fluorouracil]
NK activity after 5-FU (NK activity; 8 days after 100 mg/kg 5-FU, baseline 42±5%): 9±2% | total white blood cell count after 5-FU (total leukocyte number; 8 days after 100 mg/kg 5-FU, baseline 14,590±2,071): 2,597±582 cells/mm^3 | activated lymphocytes (CD3+CD25+) after 5-FU ([1]; 8 days after 100 mg/kg 5-FU, baseline 65±21): 37±10 cells/mm^3 | number of granulocytes after 5-FU (granulocytes; 8 days after 100 μg/kg 5-FU, baseline 4,485±1,116): 1,249±432 cells/mm^3 | total lymphocytes (CD3+) after 5-FU (total lymphocytes (CD3+); 8 days after 100 μg/kg 5-FU, baseline 10,904±1,973): 1,740±560 cells/mm^3 | T helper lymphocytes (CD3+CD4+) after 5-FU ([3]; 8 days after 100 μg/kg 5-FU, baseline 5,411±1,084): 1,710±449 cells/mm^3
